Assay results from article PMC9099256, “Toward Novel [^18F]Fluorine-Labeled Radiotracers for the Imaging of α-Synuclein Fibrils” (Frontiers in Aging Neuroscience, 2022).
Several values for one entry are separate records, joined by “and”; a condition that tells them apart may be missing. Equal values may be shown once.

Columns and labels:
[1] = molecular target: T1, human recombinant α-syn fibrils (Homo sapiens, UniProt P37840); assay: Competition binding assay against [3H]DCVJ, α-syn fibrils; conditions: for selectivity over Aβ and tau aggregates: abstract; for Ki: non-radioactive ligand vs [3H]DCVJ 10 nM, α-syn fibrils 125 nM, 2 h 37°C
T1 construct: made in house; host or cells: E. coli BL21(DE3), plasmid pET11-D
Protocol: The competitor reaction was diluted with 20 mM Tris-HCl, pH 7.4 to a final volume of 200 μL per well. After incubation for 2 h at 37°C, the binding mixtures were filtered through a Perkin Elmer GF/B glass filter via a TOMTEC cell harvester and immediately washed three times with 1 mL of deionized water. Filters containing the bound ligands were dried and mixed with 3 mL of Betaplate scint solution (PerkinElmer Life Sciences) and incubated for 2 h before counting in a Wallac 1450 MicroBeta TriLux Liquid Scintillation Counter (PerkinElmer Life Sciences). For the determination of the inhibition constants, data were analyzed using GraphPad Prism software (version 7.0) to obtain IC50 values by fitting the data to the equation Y = bottom + (top - bottom)/(1 + 10(x - log IC50). Ki values were calculated from IC50 values using the equation Ki = IC50/(1 + [radioligand]/Kd).
(§1) The binding affinity of [^18F]d2, [^18F]d4, [^18F]d6, and [^18F]d8 to human recombinant α-syn, Aβ, and tau fibrils was assayed in a competition binding assay with non-radioactive ligands d2, d4, d6, and d8 against tritiated 9-(2,2-dicyanovinyl)julolidine (DCVJ) (Figure 3 and Supplementary Material). […] Although being a pan tracer makes DCVJ a less suitable tracer for the in vivo imaging of any of the protein aggregates, it makes it, however, a useful tool for evaluating the usefulness of other ligands as tracers for various proteinopathies in competitive binding experiments, as well as for scanning the fibril-binding sites in a set of in silico blind dockings.
Purified recombinant α-syn monomer (10 mg/mL) was incubated in PBS, pH 7.4, at 37 °C by shaking at 900 rpm in an Eppendorf Thermomixer for up to 84 hours. To determine the concentration of fibrils, the fibril reaction mixer was centrifuged at 12000 g for 5 min and the fibril pellet was washed 3 times with 20 mM Tris-HCl pH 7.4 to separate fibrils from monomer. Supernatant from all the centrifugation steps were combined and the concentration of monomer in the supernatant was determined using SDS-PAGE. The concentration of the fibrils formed was determined by subtracting the mount of α-syn monomer in the supernatant from initial amount use for fibrillation process.

[2] = molecular target: tau fibrils (Homo sapiens, UniProt P10636); assay: Competition binding assay against [3H]DCVJ, tau fibrils; conditions: for Ki: vs [3H]DCVJ 20 nM, fibrils 125 nM
Protocol: (§2) Fixed concentrations (125 nM) of Aβ1–42, tau aggregates, and [^3H]DCVJ (10 and 20 nM, respectively) were used with different concentrations of cold d2, d4, d6, and d8 from 1 to 1,000 nM. The experiment was performed in quadruplicates for each concentration. Further procedures followed the same already described in section “Competition Binding Assays for α-Syn Fibrils.”
as §1
Recombinant tau monomer was dissolved at 300 µg/mL concentration in 20 mM Tris HCl pH 8.0, 100 mM NaCl, 25 μM low molecular weight heparin, and 0.5 mM DTT. The dissolved peptide was incubated at 37°C for 48 hours with shaking at 900 rpm. To determine the concentration of fibrils, the fibril reaction mixer was centrifuged at 12000 g for 5 min and the fibril pellet was washed 3 times in 20 mM Tris-HCl pH 7.4 to separate fibrils from monomer. Supernatants from all centrifugation steps were combined and the concentration of monomer in the supernatant was determined using BCA assay, alongside a BSA standard curve. The concentration of the fibrils formed was determined by subtracting the amount of tau monomer in the supernatant from initial amount used for fibrillation.

[3] = molecular target: T2, Aβ1–42 fibrils (Homo sapiens, UniProt P05067); assay: Competition binding assay against [3H]DCVJ, Aβ1–42 fibrils; conditions: for Ki: vs [3H]DCVJ 10 nM, fibrils 125 nM
T2 construct: 1 mg of β-amyloid1−42 peptide was dissolved in 50 μL DMSO
Protocol: as §2, §1
1 mg of β-amyloid1−42 peptide was dissolved in 50 μL DMSO. 925 μL of Milli-Q water was added to the above. Then 25 μL of 1M Tris HCl, pH 7.4 was added to bring the final peptide concentration to 1 mg/mL. The dissolved peptide was then incubated for 30 h at 37°C with shaking at 900 rpm. To determine the concentration of fibrils, the fibril reaction mixer was centrifuged at 12000 g for 5 min and the fibril pellet was washed three times in 20 mM Tris-HCl pH 7.4 to separate fibrils from monomer. Supernatant from all centrifugation steps were combined and the concentration of monomer in the supernatant was determined in a BCA assay, alongside a BSA standard curve. The concentration of the fibrils formed was determined by subtracting the amount of β-amyloid1−42 monomer in the supernatant from initial amount used for fibrillation.

[4] = Biodistribution experiments; type: in vivo, healthy C57BL/6J mice; conditions: for brain uptake at 5 min p.i. / brain uptake at 60 min p.i.: i.v.
Protocol: The ethanol solutions containing the tracers [^18F]d2, [^18F]d4, [^18F]d6, and [^18F]d8 were diluted with DMSO, Tween-20, and saline added consecutively to achieve a final concentration of 2.4, 2.4, and 0.4% of ethanol, DMSO, and Tween-20, respectively. The pH was adjusted with 0.05 N aqueous sodium hydroxide solution. 1.5–2.5 MBq of [^18F]d2, [^18F]d4, [^18F]d6, and [^18F]d8 prepared in the above solvent mixture were administered to the mice via the caudal vein under isoflurane anesthesia. The mice were sacrificed at 5 and 60 min p.i. The following organs/tissues were extracted: blood, heart, lung, liver, stomach, pancreas, colon, small intestine, kidney, muscle, bone, tail, and the brain. The radioactivity in the pre-weighed tissue samples was determined using a γ-counter. Data are expressed as a percent of the injected dose per gram tissue (% ID/g; mean ± sd, n = 3).

[5] = Log D determination (octanol/PBS pH 7.4); type: physicochemical; conditions: for logD: octanol/PBS pH 7.4, n = 3; for reduction of log D versus benzodioxole counterpart: [18F]d4 vs [18F]d2, [18F]d8 vs [18F]d6
Protocol: To a solution of [^18F]d2, [^18F]d4, [^18F]d6, and [^18F]d8 (0.5–1.0 MBq) in 0.5 mL octanol, 0.5 mL PBS (pH 7.4) was added in a 1.5 mL Eppendorf vial. The vials were vigorously vortexed for 10 min. To achieve efficient phase separation, the vials were centrifuged for 10 min at 13,000 rpm in a Heraeus Biofuge 13 centrifuge. Aliquots (100 μL) of the aqueous and the octanol phase were collected carefully and the amount radioactivity in the respective samples was quantified using a γ-counter. The log octanol/PBS values were calculated from the means of n = 3 separate determinations.

[6] = In vitro plasma protein binding (ultrafiltration); type: in vitro ADME, human; conditions: for fp (free plasma fraction): human plasma, ultrafiltration, n = 3; for fp relative to benzodioxole counterpart: [18F]d8 vs [18F]d6, [18F]d4 vs [18F]d2
Protocol: To estimate the free fraction (fp) of the radioligands in the plasma, an ultrafiltration method was used. Approximately 1 MBq of [^18F]d2, [^18F]d4, [^18F]d6, and [^18F]d8 were added to 450 μL of Seronorm Human plasma (Invicon GmbH, Munich, Germany), and the mixture was incubated for 10 min. After incubation, 150 μL of plasma was transferred into 3 ultrafiltration tubes (Centrifree YM-30; cutoff 30,000 MW; Millipore) and centrifuged at 8,000 rpm for 10 min. Equal aliquots of the ultrafiltrate (Cfree), and of the plasma (Ctotal) were counted for their radioactivity with a γ-counter. The fp of the radioligands was calculated as fp = Cfree/Ctotal (n = 3).

[7] = In vivo PET-MRI dynamic scan with biodistribution; set-up: species or system healthy C57BL/6J mice; conditions: healthy mice, i.v., biodistribution after PET dynamic scan
Protocol: For PET imaging [^18F]d6 and [^18F]d8 were prepared as described in section “Biodistribution Experiments” and ∼11 MBq was injected via the caudal vein in the mice (n = 3 for each tracer). PET was recorded on nanoScan PET/MRI (Mediso Medical Imaging System) under isoflurane anesthesia. PET was continuously recorded in list mode for 120 min and consisted of 36 frames (1 × 60 s; 30 × 10 s; 1 × 600 s; 1 × 900 s; and 3 × 1800 s) while anesthesia was maintained. Data were reconstructed using Nucline nanoScan 3.00.021.0000 software, employing a three-dimensional ordered subset expectation maximum (OSEM3D) algorithm without a scatter and attenuation correction. Tissue time–activity curves (TACs) were obtained by projecting the defined ROI onto all frames of the dynamic PET scans. At 2 h after the PET dynamic scan, the mice were promptly euthanized, the rest of the protocol followed as already described in section “Biodistribution Experiments.”

[8] = Metabolite experiments (brain and plasma, 20 min p.i.); type: in vivo, healthy mice
Protocol: Tracers [^18F]d6 and [^18F]d8 were prepared as already described above in section “Biodistribution Experiments.” About 80–120 MBq of the tracers were injected via the caudal vein in the mice (n = 3 per tracer). At 20 min p.i., the animals were euthanized, and the needed tissues were extracted and placed on dry ice. To separate plasma from the blood cells, the blood samples were first centrifuged 13,000 rpm for 10 min, then acetonitrile acidified with 1% trifluoroacetic acid (TFA) (10 min, 4°C) was added to the centrifugate to precipitate the plasma proteins, followed by another centrifugation as already described, and ultrafiltration using ultrafiltration tubes (Centrifree YM-30; cutoff 30,000 MW; Millipore). A 10 μL of 1 M DMSO solution of the cold references was added to the centrifugate which was subsequently analyzed by RP-HPLC. The brain was frozen in liquid nitrogen and homogenized with a ball mill. A mixture of acetonitrile and DMSO (5:1) with 1% TFA containing the cold references of the tracers was added to the homogenate and mixed. The suspension was centrifuged. The supernatant was then filtered using ultrafiltration tubes as already described, the resulting filtrate was subsequently analyzed by RP-HPLC.

T2 sequence (P05067 672-713): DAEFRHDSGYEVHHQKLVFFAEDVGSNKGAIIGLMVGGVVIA
Chain of tau fibrils (P10636 2-758): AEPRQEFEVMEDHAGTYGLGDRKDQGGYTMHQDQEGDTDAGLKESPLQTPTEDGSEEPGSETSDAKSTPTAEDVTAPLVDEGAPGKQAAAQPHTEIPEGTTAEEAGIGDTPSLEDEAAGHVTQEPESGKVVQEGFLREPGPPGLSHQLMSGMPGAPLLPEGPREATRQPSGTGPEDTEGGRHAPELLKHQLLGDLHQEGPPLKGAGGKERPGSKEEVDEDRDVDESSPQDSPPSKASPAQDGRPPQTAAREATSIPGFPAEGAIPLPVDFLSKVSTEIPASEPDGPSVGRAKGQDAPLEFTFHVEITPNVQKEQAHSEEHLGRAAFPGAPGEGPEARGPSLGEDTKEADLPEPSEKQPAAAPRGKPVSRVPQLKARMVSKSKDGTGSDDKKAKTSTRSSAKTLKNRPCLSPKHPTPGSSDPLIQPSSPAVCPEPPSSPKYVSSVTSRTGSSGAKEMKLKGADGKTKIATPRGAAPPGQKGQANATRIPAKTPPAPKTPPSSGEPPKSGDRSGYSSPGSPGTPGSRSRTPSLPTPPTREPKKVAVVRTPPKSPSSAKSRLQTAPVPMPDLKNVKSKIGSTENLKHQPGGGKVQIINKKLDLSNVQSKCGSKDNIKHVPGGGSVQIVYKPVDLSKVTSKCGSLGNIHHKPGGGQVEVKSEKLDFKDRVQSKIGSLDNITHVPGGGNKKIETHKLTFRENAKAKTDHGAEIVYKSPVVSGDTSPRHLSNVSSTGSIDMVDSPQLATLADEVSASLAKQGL

| brain uptake at 5 min p.i. ([4]; healthy mice, 5 min p.i.) | brain uptake at 60 min p.i. ([4]; healthy mice) | logD [5] | fp (free plasma fraction) [6] | selectivity over Aβ and tau aggregates [1] | Ki [1] | Ki [2] | Ki [3] | SMILES | other results |
| --- | --- | --- | --- | --- | --- | --- | --- | --- | --- |
| – | – | – | – | – | – | – | – | N#CC(C#N)=Cc1cc2c3c(c1)CCCN3CCC2 [DCVJ, 9-(2,2-dicyanovinyl)julolidine, reference compound] | Kd ([1]; radioligand/pan-amyloid ligand): 4.42 nM; Kd ([2]; radioligand/pan-amyloid ligand): 15.6 nM; Kd ([3]; radioligand/pan-amyloid ligand, read-out: Kd for Aβ): 8.9 nM |
| 1.58 %ID/g | 1.93 %ID/g | 3.1 ± 0.09 | 0.25 ± 0.01% | – | – | – | – | COc1ccc(-c2csc(-c3nc(-c4ccc5c(c4)OCO5)cs3)n2)cc1[18F] [[^18F]d2, 4-(benzo[d][1,3]dioxol-5-yl)-4′-(3-[^18F]fluoro-4-methoxyphenyl)-2,2′-bithiazole] | – |
| 4.63 %ID/g | 3.86 %ID/g | 3 ± 0.04 | 0.45 ± 0.03% | – | – | – | – | COc1ccc(-c2csc(-c3nc(-c4cnc5c(c4)OCO5)cs3)n2)cc1[18F] [[^18F]d4, 6-(4′-(3-[^18F]fluoro-4-methoxyphenyl)-[2,2′-bithiazol]-4-yl)-[1,3]dioxolo[4,5-b]pyridine] | reduction of log D versus benzodioxole counterpart [5]: approximately 3.2%; fp relative to benzodioxole counterpart [6]: ~2 times |
| 5.79 %ID/g | 1.75 %ID/g | 2.8 ± 0.09 | 0.14 ± 0.02% | – | – | – | – | [18F]c1ccc(-c2csc(-c3nc(-c4ccc5c(c4)OCO5)cs3)n2)cn1 [[^18F]d6, 4-(benzo [d][1,3]dioxol-5-yl)-4′-(6-[^18F]fluoropyridin-3-yl)-2,2′-bithiazole] | brain uptake at 120 min p.i. [7]: 1.04 %ID/g |
| 5.13 %ID/g | ~1 %ID/g and 1.07 %ID/g | 2.6 ± 0.09 | 0.85 ± 0.02% | – | – | – | – | [18F]c1ccc(-c2csc(-c3nc(-c4cnc5c(c4)OCO5)cs3)n2)cn1 [[^18F]d8, 6-(4′-(6-[^18F]fluoropyridin-3-yl)-[2,2′-bithiazol]-4-yl)-[1,3]dioxolo[4,5-b]pyridine] | brain radiometabolites ([8]; healthy mice): no brain radiometabolites; parent tracer in brain content ([8]; mice, brain homogenate): > 99%; parent tracer remaining in the plasma (in vivo stability) ([8]; mice, plasma): > 60%; reduction in brain concentration at 5 min p.i. versus [18F]d6 ([4]; healthy mice, 5 min p.i.): 11.4%; brain uptake in mice ([4]; mice, time not stated): > 4 % ID/g; reduction of log D versus benzodioxole counterpart [5]: ~7.1%; fp relative to benzodioxole counterpart [6]: about 6 times; brain uptake at 120 min p.i. [7]: < 1 %ID/g and 0.58 %ID/g |
| – | – | – | – | > 200 fold | 1.22 nM | > 1000 nM | 242 nM | COc1ccc(-c2csc(-c3nc(-c4ccc5c(c4)OCO5)cs3)n2)cc1F [d2, 4-(benzo[d][1,3]dioxol-5-yl)-4'-(3-fluoro-4-methoxyphenyl)-2,2'-bithiazole] | selectivity over Aβ [1]: about 200 fold; selectivity over tau [1]: ~1,000 fold |
| – | – | – | – | > 200 fold | 0.66 nM | > 1000 nM | 275 nM | COc1ccc(-c2csc(-c3nc(-c4cnc5c(c4)OCO5)cs3)n2)cc1F [d4, 6-(4'-(3-fluoro-4-methoxyphenyl)-[2,2'-bithiazol]-4-yl)-[1,3]dioxolo[4,5-b]pyridine] | – |
| – | – | – | – | > 200 fold | 1.21 nM | 966 nM | 237 nM | Fc1ccc(-c2csc(-c3nc(-c4ccc5c(c4)OCO5)cs3)n2)cn1 [d6, 4-(benzo[d][1,3]dioxol-5-yl)-4'-(6-fluoropyridin-3-yl)-2,2'-bithiazole] | – |
| – | – | – | – | > 200 fold | 0.1 nM | > 1000 nM | 386 nM | Fc1ccc(-c2csc(-c3nc(-c4cnc5c(c4)OCO5)cs3)n2)cn1 [d8, 6-(4'-(6-fluoropyridin-3-yl)-[2,2'-bithiazol]-4-yl)-[1,3]dioxolo[4,5-b]pyridine] | – |
